The nature of data set [1]: Test 1 (Pharmacokinetics Study), oral administration to mice, serum drug concentration by HPLC. It is filed as in vivo. Conditions: male, BDF1, mouse, oral 200 mg/kg, mice fasting for 16 hours, 1-24 hours after administration, read-out: AUC1h-24h. On the procedure:
Pharmacokinetics study was conducted, using six-week-old BDF1 male mice. Test compound was dissolved in dichloromethane together with hydroxypropyl cellulose (low-molecular weight)(HPC(L)) 2.5 times as much as the drug weight, dried under reduced pressure and was suspended in distilled water so as to have the drug concentration of 20 mg/mL. The test compound was forcedly orally administered to mice fasting for 16 hours with dose of 200 mg/kg. One, two, four, eight and 24 hours after the administration, blood was collected from orbit of two mice to obtain serum 100 μL of the obtained serum was added with internal standard solution and 1 mL of distilled water and then test compound and internal standard substance were extracted from the resulting mixture by diethyl ether. The organic layers were evaporated to dryness under reduced pressure and residues were dissolved in eluent to obtain HPLC measurement sample. The analysis was performed by HPLC with reversed-phase column and the eluent used was acetonitrile-phosphate buffer (pH 2.5). The drug concentration in the test serum was calculated by the calibration curve (Y=aX+b) obtained from standard substance. Area under the curve (AUC1h-24h) was calculated from the drug concentration in the serum, using WinNonlin (produced by the firm Pharsight, ver. 4.01).

For data set [2], the system named is Human colon cancer WiDr. Put plainly: Test 2 (In Vivo Antitumor Test), subcutaneous WiDr tumor in nude mice. Also noted: species or system mutant BALB/c nude mice; key to evaluation: Cases where T/C (%) of the last day was less than 50% and U-assay of Mann-Whitney revealed significant difference with one-sided risk rate of 1% were evaluated to be effective (+); ineffective (−). Conditions: oral 100 mg/kg once a day, six times a week, for two weeks; for evaluation: T/C of the last day and Mann-Whitney U-assay; for T/C (%): relative tumor growth rate, last day. On the procedure:
Human colon cancer WiDr was grown as subcutaneous tumor in mutant BALB/c nude mice. 2-mm-cube tumor fragments were transplanted subcutaneously into left flank of the nude mice. When the tumor reached logarithmic growth phase, mice were divided randomly into test groups consisting five mice per group. The samples prepared by dissolving test compound in dichloromethane with a ratio of the test compound to HPC(L) being 1:2.5, dried under reduced pressure and suspended in distilled water. The samples were then orally administered at a rate of test compound 100 mg/kg, once a day and six times a week in total, for two weeks. The length and width of the tumor mass were measured on a daily basis to calculate tumor volume. The tumor volume at each measured day was divided by that at the start day of the sample administration to calculate relative tumor growth rate; and the relative tumor growth rate of the treated groups (T) and that of the control group (C) were used to calculate T/C(%).

The test system of data set [3] is Human colon cancer WiDr. Put plainly: in vitro antitumor test (50% growth inhibition concentration). The class given is cell-based. On the procedure:
This was also supported by the results of Table 3 below showing test results of in vitro antitumor test (comparative tests in 50% growth inhibition concentrations (GI50 μM) to Human colon cancer WiDr).

Here are results for 13 compounds from US7855199B2, “Heterocyclic compound and anti-malignant-tumor agent containing the same as active ingredient” (Zenyaku Kogyo Kabushiki Kaisha, priority 2004, dated 2010).

As a reminder, the melting point is the temperature, or range, at which the solid turns liquid. As usually defined, the GI50 is the concentration that inhibits growth by half.

As for `COc1cccc2c1nc(C(F)F)n2-c1nc(N2CCOCC2)cc(N2CCO[C@@H](C)[C@H]2C)n1` (relative stereo) [compound 3, 2-(2-difluoromethyl-4-methoxybenzimidazol-1-yl)-4-(cis-2,3-dimethylmorpholino)-6-morpholinopyrimidine], the melting point is 176 to 178 °C. In addition, in data set [1], the AUC(0-t) was 87000 ng·h/mL.
For `COc1cccc2c1nc(C(F)F)n2-c1nc(N2CCOCC2)cc(N2C[C@H](C)O[C@@H](C)C2)n1` (relative stereo) [compound 4, 2-(2-difluoromethyl-4-methoxybenzimidazol-1-yl)-4-(trans-2,6-dimethylmorpholino)-6-morpholinopyrimidine], the AUC(0-t) in data set [1] stood at 138000 ng·h/mL.
With `C[C@@H]1OCCN(c2cc(N3CCOCC3)nc(-n3c(C(F)F)nc4c(O)cccc43)n2)[C@@H]1C` (relative stereo) [compound C, 2-(2-difluoromethyl-4-hydroxybenzimidazol-1-yl)-4-(cis-2,3-dimethylmorpholino)-6-morpholinopyrimidine, reference compound], in data set [1], the AUC(0-t) turned out to be 17000 ng·h/mL.
Take `C[C@H]1CN(c2cc(N3CCOCC3)nc(-n3c(C(F)F)nc4c(O)cccc43)n2)C[C@H](C)O1` (relative stereo) [compound D, 2-(2-difluoromethyl-4-hydroxybenzimidazol-1-yl)-4-(trans-2,6-dimethylmorpholino)-6-morpholinopyrimidine, reference compound]: the AUC(0-t) in data set [1] is 68000 ng·h/mL.
As to `COc1cccc2c1nc(C(F)F)n2-c1nc(N2CCOCC2)cc(N2C[C@@H](C)O[C@@H](C)C2)n1` [compound 1, 2-(2-difluoromethyl-4-methoxybenzimidazol-1-yl)-4-(cis-2,6-dimethylmorpholino)-6-morpholinopyrimidine], the AUC(0-t) in data set [1] came to 332000 ng·h/mL. Also, in the data set on Human colon cancer WiDr [2], the evaluation result was “+ (Cases where T/C (%) of the last day was less than 50% and U-assay of Mann-Whitney revealed significant difference with one-sided risk rate of 1% were evaluated to be effective (+))”; the “T/C (%)” value is recorded as 35.7%. Also, the 50% growth inhibitory concentration (GI50) in the data set with Human colon cancer WiDr [3] turned out to be 450 nM.
In turn, `COc1cccc2c1nc(C(F)F)n2-c1nc(N2CCOCC2)cc(N2CCOC(C)(C)C2)n1` [compound 2, 2-(2-difluoromethyl-4-methoxybenzimidazol-1-yl)-4-(2,2-dimethylmorpholino)-6-morpholinopyrimidine] returned a melting point of 166 to 168 °C. For the same compound, the AUC(0-t) in data set [1] turned out to be 146000 ng·h/mL. Also, in the data set with Human colon cancer WiDr [2], the evaluation result was “+ (Cases where T/C (%) of the last day was less than 50% and U-assay of Mann-Whitney revealed significant difference with one-sided risk rate of 1% were evaluated to be effective (+))”; the “T/C (%)” value amounted to 28.8%. This compound came in with a GI50 in the data set on Human colon cancer WiDr [3] of 140 nM.
In the case of `COc1cccc2c1nc(C(F)F)n2-c1nc(N2CCOCC2)cc(N2CCOCC2)n1` [compound 5, 2-(2-difluoromethyl-4-methoxybenzimidazol-1-yl)-4,6-dimorpholinopyrimidine], the melting point is 203 to 205 °C.
As for `COc1cccc2c1nc(C(F)F)n2-c1nc(N2CCOCC2)nc(N2C[C@@H](C)O[C@@H](C)C2)n1` [compound 6, 2-(2-difluoromethyl-4-methoxybenzimidazol-1-yl)-4-(cis-2,6-dimethylmorpholino)-6-morpholino-1,3,5-triazine], the melting point was 235 to 237 °C.
In turn, `COc1cccc2c1nc(C(F)F)n2-c1nc(N2CCOCC2)nc(N2CC(C)(C)OCC2(C)C)n1` [compound 7, 2-(2-difluoromethyl-4-methoxybenzimidazol-1-yl)-4-(2,2,5,5-tetramethylmorpholino)-6-morpholino-1,3,5-triazine] yielded a melting point of 209 to 211 °C.
Same read-out and setting: as for `CCOc1cccc2c1nc(C(F)F)n2-c1nc(N2CCOCC2)cc(N2CCOCC2)n1` [compound 8, 2-(2-difluoromethyl-4-ethoxybenzimidazol-1-yl)-4,6-dimorpholinopyrimidine], the figure is 188 to 190 °C.
`CCOc1cccc2c1nc(C(F)F)n2-c1nc(N2CCOCC2)cc(N2CCOC(C)(C)C2)n1` [compound 9, 2-(2-difluoromethyl-4-ethoxybenzimidazol-1-yl)-4-(2,2-dimethylmorpholino)-6-morpholinopyrimidine] registered a melting point of 114 to 116 °C. Moreover, in data set [1], the AUC(0-t) amounted to 88000 ng·h/mL.
For the compound `C[C@@H]1CN(c2cc(N3CCOCC3)nc(-n3c(C(F)F)nc4c(O)cccc43)n2)C[C@H](C)O1` [compound A, 2-(2-difluoromethyl-4-hydroxybenzimidazol-1-yl)-4-(cis-2,6-dimethylmorpholino)-6-morpholinopyrimidine], the AUC(0-t) in data set [1] turned out to be 17000 ng·h/mL. In the data set with Human colon cancer WiDr [2], the evaluation entry is recorded as “−” and the “T/C (%)” value turned out to be 78.3%. Moreover, it took 150 nM to inhibit growth in the data set on Human colon cancer WiDr [3] by half (GI50).
Turning to `CC1(C)CN(c2cc(N3CCOCC3)nc(-n3c(C(F)F)nc4c(O)cccc43)n2)CCO1` [compound B, 2-(2-difluoromethyl-4-hydroxybenzimidazol-1-yl)-4-(2,2-dimethylmorpholino)-6-morpholinopyrimidine, reference compound], in data set [1], the AUC(0-t) came to 5000 ng·h/mL. Moreover, in the data set on Human colon cancer WiDr [2], the evaluation entry is “−” and the “T/C (%)” value is listed as 88.4%. This compound registered a GI50 with Human colon cancer WiDr [3] of 90 nM.
